Data taken from patent US12714106B2 (Bayer Aktiengesellschaft, priority 2020, dated 2026).

Tests used:
Format in all cases: in vivo
EMEAU (Emex australis) = test: Post-emergence greenhouse herbicide test, visual rating; conditions: 12.5 g/ha (row as printed)
Protocol: (§1) Seeds of grass and broadleaf weeds were sown in pots (diameter: 7 cm) filled with a sandy loam soil. Following germination the plants were grown under optimal conditions up to a growth stage of BBCH 11 to 14 depending on species.
(§2) The applications were performed by post emergence treatments on the planted pots using a spray volume of 300 L water per hectare. The herbicides were applied alone and in combination as described.
(§3) The trial was conducted in the greenhouse ensuring optimal growing conditions.
(§4) The herbicidal effects were assessed 21 days following application by visual ratings comparing treated and untreated plants (0%=no effect to 100%=complete die-off).
(§5) The compounds of the formula (Ia), (Ib) and (I) were formulated as WP (wettable powder) formulation.
(§6) • BBCH=the BBCH code provides information about the morphological development stage of a plant. Officially, the abbreviation denotes the Biologische Bundesanstalt, Bundessortenamt and Chemische Industrie [Federal Biological Institute for Agriculture and Forestry, Federal Office for Crop Plant Varieties and Chemical Industry]. The range of BBCH 00-10 denotes the germination stages of the seeds until surface penetration. The range of BBCH 11-25 denotes the leaf development stages until stocking (corresponding to the number of tillers or side-shoots). In the Trials, the Following Biotypes of Broad-Leaved Weeds and Weed Grasses were Used: • ALOMY—sensitive (Alopecurus myosuroides) sensitive to customary herbicidally active compounds. • ALOMY_R (resistant) (Alopecurus myosuroides) resistant to herbicidally active compounds of the HRAC groups A and B; population mixture of field origin having increased metabolic resistance (IMR) and some target site resistance (TSR). • LOLRI—sensitive (Lolium rigidum) sensitive to customary herbicidally active compounds. • LOLRI_R (resistant) (Lolium rigidum) resistant to herbicidally active compounds of the HRAC groups A and B; population mixture of field origin having increased metabolic resistance (IMR) and some target site resistance (TSR). • AMAPA_R (resistant) (Amaranthus palmeri) resistant to herbicidally active compounds of the HRAC groups A and B; population mixture of field origin having increased metabolic resistance (IMR) and some target site resistance (TSR). • CHRVI (Chloris virgate) feather finger grass • KCHSC (Kochia scoparia) Mexican burning bush • MATIN (Matricaria inodora) false chamomile • POLCO (Polygonum convolvulus) black knotweed • ABUTH (Abutilon theophrasti) china jute • AMAPA (Amaranthus palmeri) palmer amaranth • BIDPI (Bidens pilosa) common blackjack • CHEAL (Chenopodium album) common lambsquarters • EPHHL (Euphorbia heterophylla) wild spurge • XANST (Xanthium strumarium) large cocklebur • EMEAU (Emex australis)—Cathead • GALAP (Gallium aparine)—Cleaver
(§7) The synergistic herbicidal activity was calculated using Colby's formula (cf. S. R. Colby; Weeds 15 (1967), 20-22): […]

[1] = test system: AMAPA-R (resistant) (Amaranthus palmeri); test: as above; conditions: 25 g/ha (Ia) + 25 g/ha (Ib)
Protocol: as §1, §2, §3, §4, §5, §6, §7

BID PI (Bidens pilosa) = test: as above; conditions: 25 g/ha (Ia) + 25 g/ha (Ib)
Protocol: as §1, §2, §3, §4, §5, §6, §7

[2] = test system: POLCO (Polygonum convolvulus); test: as above; conditions: 12.5 g/ha
Protocol: as §1, §2, §3, §4, §5, §6, §7

GALAP (Gallium aparine) = test: as above; conditions: 50 g/ha
Protocol: as §1, §2, §3, §4, §5, §6, §7

[3] = test system: CHEAL (Chenopodium album); test: as above; conditions: 25 g/ha (Ia) + 25 g/ha (Ib)
Protocol: as §1, §2, §3, §4, §5, §6, §7

[4] = test system: XANST (Xanthium strumarium); test: as above; conditions: for XANST Expected: Colby formula; for XANST synerg.: observed minus expected; for XANST Observed: post-emergence, 21 days after application
Protocol: as §1, §2, §3, §4, §5, §6, §7

[5] = test system: ABUTH (Abutilon theophrasti); test: as above; conditions: for ABUTH Expected: Colby formula; for ABUTH synerg.: observed minus expected; for ABUTH Observed: post-emergence, 21 days after application
Protocol: as §1, §2, §3, §4, §5, §6, §7

KCHSC (Kochia scoparia) = test: as above; conditions: 12.5 g/ha
Protocol: as §1, §2, §3, §4, §5, §6, §7

[6] = test system: LOLRI_R (resistant) (Lolium rigidum); test: as above; conditions: for LOLRI_R Expected: Colby formula; for LOLRI_R Synergism: observed minus expected; for LOLRI_R Observed: post-emergence, 21 days after application
Protocol: as §1, §2, §3, §4, §5, §6, §7

[7] = test system: EPHHL (Euphorbia heterophylla); test: as above; conditions: for EPHHL Expected: Colby formula; for EPHHL synerg.: observed minus expected; for EPHHL Observed: post-emergence, 21 days after application
Protocol: as §1, §2, §3, §4, §5, §6, §7

CHRVI (Chloris virgate) = test: as above; conditions: 12.5 g/ha
Protocol: as §1, §2, §3, §4, §5, §6, §7

[8] = test system: LOLRI - sensitive (Lolium rigidum); test: as above; conditions: for LOLRI Expected: Colby formula; for LOLRI Synergism: observed minus expected; for LOLRI Observed: post-emergence, 21 days after application
Protocol: as §1, §2, §3, §4, §5, §6, §7

[9] = test system: MATIN (Matricaria inodora); test: as above; conditions: for MATIN Expected: Colby formula; for MATIN Synergism: observed minus expected; for MATIN Observed: post-emergence, 21 days after application
Protocol: as §1, §2, §3, §4, §5, §6, §7

[10] = test system: grass and broadleaf weeds; test: Comparative testing of crystalline (I), (Ia), (Ib), summary of tables 3 to 6; conditions: see tables 3 to 6
Protocol: as §1, §2, §3, §4, §5, §7

[11] = post-emergence, 21 days after application

C=C[C@]1(C(=O)N[C@H]2CO[C@@H](C(=O)OC)C2)CC(c2cc(F)cc(F)c2)=NO1 (relative stereo) [(I), methyl(2R*,4R*)-4-[[(5S)-3-(3,5-difluorophenyl)-5-vinyl-4H-isoxazole-5-carbonyl]amino]tetrahydrofuran-2-carboxylate]
EMEAU Expected (EMEAU (Emex australis); Colby formula): 89% | EMEAU Synergism (EMEAU (Emex australis); observed minus expected): 8% | EMEAU Observed (EMEAU (Emex australis); [11]): 97% | AMAPA-R Expected ([1]; Colby formula): 51% | AMAPA-R synerg. ([1]; observed minus expected): 14% | AMAPA-R Observed [1, 11]: 65% | BID PI Expected (BID PI (Bidens pilosa); Colby formula): 37% | BID PI synerg. (BID PI (Bidens pilosa); observed minus expected): 28% | BID PI Observed (BID PI (Bidens pilosa); [11]): 65% | POLCO Expected ([2]; Colby formula): 91% | POLCO Synergism ([2]; observed minus expected): 4% | POLCO Observed [2, 11]: 95% | GALAP Expected (GALAP (Gallium aparine); Colby formula): 84% | GALAP Synergism (GALAP (Gallium aparine); observed minus expected): 6% | GALAP Observed (GALAP (Gallium aparine); [11]): 90% | CHEAL Expected ([3]; Colby formula): 76% | CHEAL synerg. ([3]; observed minus expected): 19% | CHEAL Observed [3, 11]: 95% | XANST Expected ([4]; 25 g/ha (Ia) + 25 g/ha (Ib)): 0% | XANST synerg. ([4]; 25 g/ha (Ia) + 25 g/ha (Ib)): 35% | XANST Observed ([4]; 25 g/ha (Ia) + 25 g/ha (Ib)): 35% | XANST Expected ([4]; 50 g/ha (Ia) + 50 g/ha (Ib)): 28% | XANST synerg. ([4]; 50 g/ha (Ia) + 50 g/ha (Ib)): 7% | XANST Observed ([4]; 50 g/ha (Ia) + 50 g/ha (Ib)): 35% | XANST Expected ([4]; 100 g/ha (Ia) + 100 g/ha (Ib)): 36% | XANST synerg. ([4]; 100 g/ha (Ia) + 100 g/ha (Ib)): 29% | XANST Observed ([4]; 100 g/ha (Ia) + 100 g/ha (Ib)): 65% | ABUTH Expected ([5]; 25 g/ha (Ia) + 25 g/ha (Ib)): 51% | ABUTH synerg. ([5]; 25 g/ha (Ia) + 25 g/ha (Ib)): 25% | ABUTH Observed ([5]; 25 g/ha (Ia) + 25 g/ha (Ib)): 75% | ABUTH Expected ([5]; 50 g/ha (Ia) + 50 g/ha (Ib)): 68% | ABUTH synerg. ([5]; 50 g/ha (Ia) + 50 g/ha (Ib)): 7% | ABUTH Observed ([5]; 50 g/ha (Ia) + 50 g/ha (Ib)): 75% | KCHSC Expected (KCHSC (Kochia scoparia); Colby formula): 82% | KCHSC Synergism (KCHSC (Kochia scoparia); observed minus expected): 13% | KCHSC Observed (KCHSC (Kochia scoparia); [11]): 95% | LOLRI_R Expected ([6]; 6.25 g/ha): 15% | LOLRI_R Synergism ([6]; 6.25 g/ha): 15% | LOLRI_R Observed ([6]; 6.25 g/ha): 30% | LOLRI_R Expected ([6]; 12.5 g/ha): 20% | LOLRI_R Synergism ([6]; 12.5 g/ha): 20% | LOLRI_R Observed ([6]; 12.5 g/ha): 40% | LOLRI_R Expected ([6]; 25 g/ha): 30% | LOLRI_R Synergism ([6]; 25 g/ha): 10% | LOLRI_R Observed ([6]; 25 g/ha): 40% | EPHHL Expected ([7]; 25 g/ha (Ia) + 25 g/ha (Ib)): 55% | EPHHL synerg. ([7]; 25 g/ha (Ia) + 25 g/ha (Ib)): 11% | EPHHL Observed ([7]; 25 g/ha (Ia) + 25 g/ha (Ib)): 65% | EPHHL Expected ([7]; 50 g/ha (Ia) + 50 g/ha (Ib)): 58% | EPHHL synerg. ([7]; 50 g/ha (Ia) + 50 g/ha (Ib)): 12% | EPHHL Observed ([7]; 50 g/ha (Ia) + 50 g/ha (Ib)): 70% | CHRVI Expected (CHRVI (Chloris virgate); Colby formula): 48% | CHRVI Synergism (CHRVI (Chloris virgate); observed minus expected): 47% | CHRVI Observed (CHRVI (Chloris virgate); [11]): 95% | LOLRI Expected ([8]; 6.25 g/ha): 20% | LOLRI Synergism ([8]; 6.25 g/ha): 55% | LOLRI Observed ([8]; 6.25 g/ha): 75% | LOLRI Expected ([8]; 12.5 g/ha): 90% | LOLRI Synergism ([8]; 12.5 g/ha): 5% | LOLRI Observed ([8]; 12.5 g/ha): 95% | MATIN Expected ([9]; 12.5 g/ha): 0% | MATIN Synergism ([9]; 12.5 g/ha): 15% | MATIN Observed ([9]; 12.5 g/ha): 15% | MATIN Expected ([9]; 25 g/ha): 0% | MATIN Synergism ([9]; 25 g/ha): 15% | MATIN Observed ([9]; 25 g/ha): 15% | MATIN Expected ([9]; 50 g/ha): 0% | MATIN Synergism ([9]; 50 g/ha): 20% | MATIN Observed ([9]; 50 g/ha): 20% | herbicidal activity compared with the other crystalline forms ([10]; (I) vs (Ia), (Ia) vs (Ib)): superior in herbicidal activity | synergistic effect of the physical mixture of (Ia) and (Ib) [10]: synergistic effect
